Data on eight compounds can be found in US10329283B2, “G protein-coupled receptor kinase inhibitors and methods for use of the same” (THE REGENTS OF THE UNIVERSITY OF MICHIGAN, priority 2015, dated 2019).

For orientation: pIC50 means −log10 of the IC50, conventionally taken in molar units. Low values mean a large IC50, high ones a small IC50.

pIC50: −log10 of the molar value. Counter-ions that a name gives are not always drawn.

Series [1] has as its target T1, GRK1 (Bos taurus, UniProt P28327).
T1 sequence (P28327 1-535 limits assumed): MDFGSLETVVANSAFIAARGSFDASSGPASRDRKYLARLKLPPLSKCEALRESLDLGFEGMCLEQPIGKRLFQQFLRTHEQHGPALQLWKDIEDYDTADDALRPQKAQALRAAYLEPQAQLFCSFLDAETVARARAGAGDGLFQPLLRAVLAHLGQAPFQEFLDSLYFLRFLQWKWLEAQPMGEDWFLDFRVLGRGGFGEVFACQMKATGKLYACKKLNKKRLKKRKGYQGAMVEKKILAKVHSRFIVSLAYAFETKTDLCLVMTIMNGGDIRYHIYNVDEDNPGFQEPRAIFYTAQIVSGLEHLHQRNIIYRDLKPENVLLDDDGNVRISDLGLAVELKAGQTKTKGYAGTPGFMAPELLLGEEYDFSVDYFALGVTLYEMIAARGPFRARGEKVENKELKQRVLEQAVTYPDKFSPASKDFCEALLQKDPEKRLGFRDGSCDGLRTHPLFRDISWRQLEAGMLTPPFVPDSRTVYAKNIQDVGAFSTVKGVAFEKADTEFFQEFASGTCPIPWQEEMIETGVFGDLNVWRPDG
In words: GRK1 kinetic assay for inhibition of GRKs (phosphorimaging). The following applies: 50 nM GRK, 5 μM ATP, 500 nM bROS or tubulin, 5 min. It counts as biochemical. The protocol: (§1) The low salt concentration and DDM were used to maximize GRK activity and disrupt small molecule aggregates from forming, respectively. […] Data was analyzed and inhibition curves were fit via GraphPad Prism.

In series [2] the target is GRK5 (Homo sapiens, UniProt P34947). In words: GRK5 kinetic assay for inhibition of GRKs (phosphorimaging). It counts as biochemical. Conditions: 50 nM GRK, 5 μM ATP, 500 nM bROS or tubulin, 5 min. As for the experimental part: as §1
Sequence of GRK5 (P34947 whole entry, species assumed): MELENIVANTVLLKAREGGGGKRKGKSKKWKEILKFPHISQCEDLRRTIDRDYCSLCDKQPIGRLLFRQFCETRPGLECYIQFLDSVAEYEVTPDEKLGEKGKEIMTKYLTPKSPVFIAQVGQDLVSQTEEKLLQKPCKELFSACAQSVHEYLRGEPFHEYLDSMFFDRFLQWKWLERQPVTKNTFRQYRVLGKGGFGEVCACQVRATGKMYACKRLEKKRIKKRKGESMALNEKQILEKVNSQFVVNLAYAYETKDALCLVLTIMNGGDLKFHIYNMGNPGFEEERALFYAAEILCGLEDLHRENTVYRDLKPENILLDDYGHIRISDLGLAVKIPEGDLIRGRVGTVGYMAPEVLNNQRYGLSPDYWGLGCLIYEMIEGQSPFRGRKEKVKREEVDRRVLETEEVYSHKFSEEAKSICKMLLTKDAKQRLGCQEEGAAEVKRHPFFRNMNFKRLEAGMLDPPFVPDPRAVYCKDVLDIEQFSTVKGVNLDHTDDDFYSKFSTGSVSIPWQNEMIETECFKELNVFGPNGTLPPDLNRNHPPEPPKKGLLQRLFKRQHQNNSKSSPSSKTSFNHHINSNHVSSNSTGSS
Series [3] addresses T2, GRK2 (Homo sapiens, UniProt P25098).
T2 sequence (P25098 1-689): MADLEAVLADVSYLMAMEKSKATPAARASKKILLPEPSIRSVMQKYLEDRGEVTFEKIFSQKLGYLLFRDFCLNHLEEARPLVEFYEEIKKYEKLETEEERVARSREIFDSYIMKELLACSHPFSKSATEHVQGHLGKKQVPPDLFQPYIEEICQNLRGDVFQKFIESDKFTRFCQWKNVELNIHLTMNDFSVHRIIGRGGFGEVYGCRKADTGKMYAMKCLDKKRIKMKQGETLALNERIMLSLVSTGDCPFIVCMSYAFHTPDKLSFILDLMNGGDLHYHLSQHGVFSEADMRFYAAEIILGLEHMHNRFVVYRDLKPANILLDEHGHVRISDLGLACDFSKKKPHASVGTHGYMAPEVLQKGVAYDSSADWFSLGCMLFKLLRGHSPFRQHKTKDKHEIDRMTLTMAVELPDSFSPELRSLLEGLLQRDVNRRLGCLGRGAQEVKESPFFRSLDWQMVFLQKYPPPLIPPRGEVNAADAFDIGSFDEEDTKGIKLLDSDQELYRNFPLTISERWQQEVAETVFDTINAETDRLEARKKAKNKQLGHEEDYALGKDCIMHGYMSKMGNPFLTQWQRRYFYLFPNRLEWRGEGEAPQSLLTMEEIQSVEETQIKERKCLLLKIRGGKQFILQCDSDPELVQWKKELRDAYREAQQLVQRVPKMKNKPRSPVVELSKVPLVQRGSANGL
The experiment in a line: GRK2 kinetic assay for inhibition of GRKs (phosphorimaging). The series is classed as biochemical. The following applies: 50 nM GRK, 5 μM ATP, 500 nM bROS or tubulin, 5 min. As for the experimental part: as §1

The conditions of series [4]: in words; Thal et al., Mol Pharmacol 2011; cited from earlier work.
For series [5], the target named is T2, GRK2. The following applies: in words; Setyawan et al. 1999, Tesmer et al. 2010; cited from earlier work.

`COc1cccc(OC)c1CNC(=O)c1cc([C@@H]2CCNC[C@H]2COc2ccc3c(c2)OCO3)ccc1F` [Example E15, 5-((3S,4R)-3-((benzo[d][1,3]dioxol-5-yloxy)methyl)piperidin-4-yl)-N-(2,6-dimethoxybenzyl)-2-fluorobenzamide hydrochloride]: the pIC50 in series [1] was 4.66; in series [2] it was below 4.00; in series [3], 5.86.

In the case of `O=C(NCc1c(Cl)cccc1Cl)c1cc([C@@H]2CCNC[C@H]2COc2ccc3c(c2)OCO3)ccc1F` [Example E16, 5-((3S,4R)-3-((benzo[d][1,3]dioxol-5-yloxy)methyl)piperidin-4-yl)-N-(2,6-dichlorobenzyl)-2-fluorobenzamide hydrochloride], the values for the pIC50 in series [1], in series [2] and in series [3] were 4.78, 4.47 and 5.92, respectively.

For `Fc1ccc([C@@H]2CCNC[C@H]2COc2ccc3[nH]ncc3c2)cc1` [Example E18, 5-(((3S,4R)-4-(4-fluorophenyl)piperidin-3-yl)methoxy)-1H-indazole], the pIC50 in series [1] was 4.18; in series [2], 4.89; in series [3] it was 7.15.

As for `Fc1ccc([C@@H]2CCNC[C@H]2COc2cc3cn[nH]c3cc2F)cc1` [Example E30, 6-fluoro-5-(((3S,4R)-4-(4-fluorophenyl)piperidin-3-yl)methoxy)-1H-indazole], the pIC50 in series [1] was 5.44; in series [2], 6.09; in series [3] it was 6.85.

With `COc1cccc(OC)c1CNC(=O)c1cc([C@@H]2CCNC[C@H]2COc2cc3cn[nH]c3cc2F)ccc1F` [Example E31, N-(2,6-dimethoxybenzyl)-2-fluoro-5-((3S,4R)-3-(((6-fluoro-1H-indazol-5-yl)oxy)methyl)piperidin-4-yl)benzamide], the pIC50 in series [1] was 4.40; in series [2], 5.09; in series [3], 6.40.

Turning to `CN1CC[C@@H](c2ccc(F)cc2)[C@H](COc2ccc3[nH]ncc3c2)C1` [Example E32, 5-(((3S,4R)-4-(4-fluorophenyl)-1-methylpiperidin-3-yl)methoxy)-1H-indazole], the results for the pIC50 in series [1], in series [2] and in series [3] were 4.29, 4.48 and 6.54, respectively.

As to `CCCn1c(CNc2cccc(C(=O)NCc3c(F)cccc3F)c2)nnc1-c1ccncn1` [Takeda103A], the bioavailability entry in series [4] is listed as “poor bioavailability”.

As to `O=C(N[C@@H]1CNCCC[C@H]1OC(=O)c1cc(O)c(C(=O)c2c(O)cccc2C(=O)O)c(O)c1)c1ccc(O)cc1` [balanol], in series [5], the “inhibition of GRK2” value is given as “low nanomolar range”.
